The assay concerns T1, FC rutinosidase.
T1 construct: gene f3g; native, purified from dehulled seeds (Q-Sepharose, Superdex 200, Mono Q twice); 58,400 +/- 2700 Da by gel filtration; single isozyme in native-PAGE
As to the kind of experiment: UPLC of released quercetin; Lineweaver-Burk. The format is biochemical, Fagopyrum cymosum. Conditions: 50 mM acetate-LiOH pH 5.0, 20% (v/v) methanol, 25 °C (standard assay). An excerpt:
UPLC of released quercetin; Lineweaver-Burk on FC rutinosidase

Usually Km stands for the substrate concentration at which the rate is half of its maximum. `C[C@@H]1O[C@@H](OC[C@H]2O[C@@H](Oc3c(-c4ccc(O)c(O)c4)oc4cc(O)cc(O)c4c3=O)[C@H](O)[C@@H](O)[C@@H]2O)[C@H](O)[C@H](O)[C@H]1O` [rutin]: the Km amounted to 367 ± 23.5 µM.

The values above are taken from publication PMC10093837, “Rutin Concentration and Characterization of Rutinosidase in Perennial Buckwheat (Fagopyrum cymosum) and Its Application in Foods” (Foods, 2023).
